The test system of this data set is CCRIS mutagenicity, Ames/micronucleus/aberration tests. The data set is described as follows: CCRIS mutagenicity studies.
Setting [1] is: Test System: AMES SALMONELLA TYPHIMURIUM, Strain/Indicator: TA98, Metabolic Activation: RAT, LIVER, S-9, AROCLOR 1254, Method: PREINCUBATION
Where [2] appears, read: Test System: AMES SALMONELLA TYPHIMURIUM, Strain/Indicator: TA100, Metabolic Activation: NONE, Method: STANDARD PLATE.
Where [3] appears, read: Test System: AMES SALMONELLA TYPHIMURIUM, Strain/Indicator: TA100, Metabolic Activation: RAT, LIVER, S-9, AROCLOR 1254, Method: PREINCUBATION
Setting [4] is: Test System: AMES SALMONELLA TYPHIMURIUM, Strain/Indicator: TA98, Metabolic Activation: NONE, Method: STANDARD PLATE.
The mark [5] stands for this setting: Test System: AMES SALMONELLA TYPHIMURIUM, Strain/Indicator: TA100, Metabolic Activation: RAT, LIVER, S-9, AROCLOR 1254, Method: STANDARD PLATE.

Activity calls are given as the source filed them. How the calls were made is not given here.

On to `O=[N+]([O-])c1cccc(Cl)c1Cl`, for which the mutagenic call (Test System: AMES SALMONELLA TYPHIMURIUM, Strain/Indicator: TA98, Metabolic Activation: HAMSTER, LIVER, S-9, AROCLOR 1254, Method: PREINCUBATION) is “inactive; negative”; the mutagenic call (Test System: AMES SALMONELLA TYPHIMURIUM, Strain/Indicator: TA98, Metabolic Activation: NONE, Method: PREINCUBATION) is “inactive; negative”; the mutagenic call under setting [1] was “inactive; negative”; the mutagenic call (Test System: AMES SALMONELLA TYPHIMURIUM, Strain/Indicator: TA100, Metabolic Activation: HAMSTER, LIVER, S-9, AROCLOR 1254, Method: PREINCUBATION) is “inactive; negative”; the mutagenic call (Test System: AMES SALMONELLA TYPHIMURIUM, Strain/Indicator: TA100, Metabolic Activation: NONE, Method: PREINCUBATION) is “inactive; negative”; the mutagenic call under setting [2] was “inactive; negative”. The mutagenic call under setting [3] is “inactive; negative”; the mutagenic call (Test System: AMES SALMONELLA TYPHIMURIUM, Strain/Indicator: TA1535, Metabolic Activation: HAMSTER, LIVER, S-9, AROCLOR 1254, Method: PREINCUBATION) was “inactive; negative”; the mutagenic call (Test System: AMES SALMONELLA TYPHIMURIUM, Strain/Indicator: TA1535, Metabolic Activation: NONE, Method: PREINCUBATION) was “inactive; negative”; the mutagenic call (Test System: AMES SALMONELLA TYPHIMURIUM, Strain/Indicator: TA1535, Metabolic Activation: RAT, LIVER, S-9, AROCLOR 1254, Method: PREINCUBATION) was “inactive; negative”; the mutagenic call (Test System: AMES SALMONELLA TYPHIMURIUM, Strain/Indicator: TA1537, Metabolic Activation: HAMSTER, LIVER, S-9, AROCLOR 1254, Method: PREINCUBATION) is “inactive; negative”; the mutagenic call (Test System: AMES SALMONELLA TYPHIMURIUM, Strain/Indicator: TA1537, Metabolic Activation: NONE, Method: PREINCUBATION) was “inactive; negative”. For the setting “Test System: AMES SALMONELLA TYPHIMURIUM, Strain/Indicator: TA1537, Metabolic Activation: RAT, LIVER, S-9, AROCLOR 1254, Method: PREINCUBATION”, the mutagenic call is “inactive; negative”.

With `Cc1ncc([N+](=O)[O-])n1CC(O)CCl` (stereo not drawn), the mutagenic call (End Point: IN VITRO CHROMOSOMAL ABERRATIONS, Test System: HUMAN LYMPHOCYTES, Metabolic Activation: NONE) is “active; positive (structural changes)”.

Take `CCc1c(N)ccc2ccccc12`: the mutagenic call is “inactive; negative” under setting [4]; “active; positive” (Test System: AMES SALMONELLA TYPHIMURIUM, Strain/Indicator: TA98, Metabolic Activation: RAT LIVER S-9, AROCLOR, Method: STANDARD PLATE); “inactive; negative” under setting [2]; “active; positive” (Test System: AMES SALMONELLA TYPHIMURIUM, Strain/Indicator: TA100, Metabolic Activation: RAT LIVER S-9, AROCLOR, Method: STANDARD PLATE).

As for `[Cl][Ce]([Cl])[Cl]`, the mutagenic call (Test System: E. COLI, Strain/Indicator: WP2 UVRA, Metabolic Activation: NONE, Method: SPOT TEST) is “inactive; negative”.

In the case of `Cn1c(N)nc2ccc3ncccc3c21`, the mutagenic call is, setting by setting: under setting [1], “active; positive”; under setting [3], “active; positive”.

For the compound `CCCON=O`, the mutagenic call (Test System: AMES SALMONELLA TYPHIMURIUM, Strain/Indicator: TA98, Metabolic Activation: HAMSTER, LIVER, S-9, AROCLOR 1254, Method: STANDARD PLATE) was “inactive; negative”; the mutagenic call under setting [4] was “inactive; negative”; the mutagenic call (Test System: AMES SALMONELLA TYPHIMURIUM, Strain/Indicator: TA98, Metabolic Activation: RAT, LIVER, S-9, AROCLOR 1254, Method: STANDARD PLATE) was “inactive; negative”; the mutagenic call (Test System: AMES SALMONELLA TYPHIMURIUM, Strain/Indicator: TA100, Metabolic Activation: HAMSTER, LIVER, S-9, AROCLOR 1254, Method: STANDARD PLATE) was “active; positive”; the mutagenic call under setting [2] was “inactive; negative”; the mutagenic call under setting [5] was “active; positive”. For the same compound, the mutagenic call is, setting by setting: (Test System: AMES SALMONELLA TYPHIMURIUM, Strain/Indicator: TA1535, Metabolic Activation: HAMSTER, LIVER, S-9, AROCLOR 1254, Method: STANDARD PLATE) “active; positive”; (Test System: AMES SALMONELLA TYPHIMURIUM, Strain/Indicator: TA1535, Metabolic Activation: NONE, Method: STANDARD PLATE) “active; positive”; (Test System: AMES SALMONELLA TYPHIMURIUM, Strain/Indicator: TA1535, Metabolic Activation: RAT, LIVER, S-9, AROCLOR 1254, Method: STANDARD PLATE) “active; positive”; (Test System: AMES SALMONELLA TYPHIMURIUM, Strain/Indicator: TA1537, Metabolic Activation: HAMSTER, LIVER, S-9, AROCLOR 1254, Method: STANDARD PLATE) “inactive; negative”; (Test System: AMES SALMONELLA TYPHIMURIUM, Strain/Indicator: TA1537, Metabolic Activation: NONE, Method: STANDARD PLATE) “inactive; negative”; (Test System: AMES SALMONELLA TYPHIMURIUM, Strain/Indicator: TA1537, Metabolic Activation: RAT, LIVER, S-9, AROCLOR 1254, Method: STANDARD PLATE) “inactive; negative”. Also, the mutagenic call (Test System: MOUSE LYMPHOMA, Strain/Indicator: L5178Y (TK+/TK-), Metabolic Activation: NONE, Method: SUSPENSION/PLATE) was “active; positive. reevaluation of results: inconclusive”; the mutagenic call (Test System: MOUSE LYMPHOMA, Strain/Indicator: L5178Y (TK+/TK-), Metabolic Activation: RAT, LIVER, S-9, AROCLOR 1254, Method: SUSPENSION/PLATE) is “active; positive. reevaluation of results: positive”; the mutagenic call (Test System: Mouse lymphoma, Strain/Indicator: L5178Y (tk+/tk-), Metabolic Activation: None, Method: Suspension/plate) is “active; positive”; the mutagenic call (Test System: Mouse lymphoma, Strain/Indicator: L5178Y (tk+/tk-), Metabolic Activation: Rat, Liver, S-9, Aroclor 1254, Method: Suspension/plate) is “active; positive”.

Take `CCCOc1cc2c(c3ccc4ccccc4c13)CCC2=O`: the mutagenic call under setting [5] was “inactive; negative”.

(Values after PubChem BioAssay AID1259407 (Chemical Carcinogenesis Research Information System (CCRIS), 2018).)
